Source: paper PMC9853869, “The Myxobacterial Antibiotic Myxovalargin: Biosynthesis, Structural Revision, Total Synthesis, and Molecular Characterization of Ribosomal Inhibition” (Journal of the American Chemical Society, 2023)
In brackets after ≈: the same amount, converted by molar mass. Like-named read-outs stand apart in the source and are kept apart here. *1 amine or outer side, *2 acyl side, *3 side chain or, on linkers, in order; H or OH if unused. Where a SMILES comes first, the peptide text is derived from it. [ ]: non-standard residue; d: D form. The star is where a group is joined. X1 = O=C(C[C@H](N[*:1])c1ccc(O)cc1)[*:2]; dVal(3-OH) = CC(C)(O)[C@@H](N)C(=O)O; ΔIle(E) = CC/C(C)=C(/N)C(=O)O; Isovaleryl = CC(C)CC(=O)*; Agmatine = N=C(N)NCCCCN*; NMeA = CN[C@@H](C)C(=O)O; ΔVal = CC(C)=C(N)C(=O)O

Legend:
[1] = test system: Pseudomonas aeruginosa PA14; conditions: PA14, 24 h
Staphylococcus aureus = conditions: 4 h
[2] = test system: Staphylococcus aureus DSM-346; conditions: DSM-346, 24 h
[3] = test system: Micrococcus luteus DSM-1790; conditions: DSM-1790, 24 h
[4] = test system: Escherichia coli K12 ΔtolC; conditions: K12, 24 h
[5] = test system: Enterococcus faecium DSM-20477; conditions: DSM-20477, 24 h
[6] = test system: intracellular M. tuberculosis H37Rv; experiment: Intracellular activity ex vivo in THP-1-derived macrophages; type: cell-based, Mycobacterium tuberculosis
HepG2 cells = conditions: HepG2, 24 h, alamarBlue, 0.005 - 99.0 μM, mean of 4 replicates
M. tuberculosis H37Rv [7] = experiment: Time-kill kinetics in vitro; type: cell-based, Mycobacterium tuberculosis; conditions: independent triplicates
M. tuberculosis H37Rv [8] = test system: M. tuberculosis H37Rv
[9] = test system: Mycobacterium smegmatis mc2155; conditions: mc2155, 48 h
in vivo = conditions: BALB/c, mouse
Streptococcus uberis = conditions: 4 h
Pasteurella multocida [10] = test system: Pasteurella multocida
Pasteurella multocida [11] = conditions: for Survival rate 48 hpi: single dose 1 h post-infection
[12] = test system: Pseudomonas aeruginosa PAO1; conditions: PAO1, 24 h
[13] = test system: Escherichia coli DSM-1116; conditions: DSM-1116, 24 h
[14] = test system: Chromobacterium violaceum DSM-30191; conditions: DSM-30191, 24 h

CC/C(C)=C(/NC(=O)[C@H](NC(=O)[C@@H](NC(=O)[C@@H](CCCNC(=N)N)NC(=O)C(NC(=O)[C@H](NC(=O)C[C@H](NC(=O)[C@H](NC(=O)[C@H](NC(=O)[C@H](C)N(C)C(=O)[C@H](C)NC(=O)C(NC(=O)CC(C)C)=C(C)C)C(C)C)C(C)C)c1ccc(O)cc1)C(C)C)=C(C)C)C(C)C)C(C)C)C(=O)N[C@H](C)C(=O)N[C@@H](C(=O)NCCCCNC(=N)N)C(C)(C)O [MyxA, Myxovalargin A] (Isovaleryl-[ΔVal]A[NMeA][dV][dV][X1][dV][ΔVal][dR]V[dV][ΔIle(E)][dA][dVal(3-OH)]-Agmatine)
MIC [1]: 16 µg/mL (≈ 9.54 µM)
MIC (Staphylococcus aureus): 1 to 2 µg/mL
MIC + milk (Staphylococcus aureus): > 64 µg/mL
MIC [2]: 2 µg/mL (≈ 1.19 µM)
MIC [3]: 1 µg/mL (≈ 0.596 µM)
MIC50 (Histophilus somni; 4 h): 4 µg/mL (≈ 2.39 µM)
MIC range (Histophilus somni; 4 h): 2 to 8 µg/mL
MIC90 (Histophilus somni; bovine isolates, n = 20): 8 µg/mL (≈ 4.77 µM)
MIC [4]: 16 µg/mL (≈ 9.54 µM)
MIC [5]: 0.5 µg/mL (≈ 0.298 µM)
mode of action ex vivo (intracellular) [6]: bacteriostatic activity
median cytotoxic dose CTD50 (HepG2 cells): > 99 µM
mode of killing in vitro (M. tuberculosis H37Rv [7]): dose-dependent bactericidal activity
MIC50 (Mannheimia haemolytica; 4 h): 16 µg/mL (≈ 9.54 µM)
MIC + serum (Mannheimia haemolytica; 4 h): 20 µg/mL
MIC90 (Mannheimia haemolytica; bovine isolates, n = 55): 16 µg/mL (≈ 9.54 µM)
MIC (M. tuberculosis H37Rv [8]): 0.2 µg/mL (≈ 0.119 µM)
MIC [9]: 4 µg/mL (≈ 2.39 µM)
level at 0.5 h (in vivo; ip, 10 mg/kg): 1830 ng/mL
level at 2 h (in vivo; ip, 10 mg/kg): 1550 ng/mL
level at 0.5 h (in vivo; sc, 50 mg/kg): 5260 ng/mL
level at 2 h (in vivo; sc, 50 mg/kg): 2280 ng/mL
effect on bacterial burden in lung and spleen (M. tuberculosis; 2 mg/kg i.p. daily, study terminated after 1 week): no significant effect on bacterial burden
toxicity in infected mice (M. tuberculosis; mouse, in vivo): moribund after 1 week
MIC (Streptococcus uberis): 0.25 to 2 µg/mL
MIC + milk (Streptococcus uberis): > 64 µg/mL
MIC50 (Pasteurella multocida [10]; 4 h): 16 µg/mL (≈ 9.54 µM)
MIC + serum (Pasteurella multocida [10]; 4 h): 10 µg/mL
MIC90 (Pasteurella multocida [10]; bovine isolates, n = 25): 16 µg/mL (≈ 9.54 µM)
Survival rate 48 hpi (Pasteurella multocida [11]; 10 mg/kg MyxA, i.p., groups of 6): 83%
Mean bacteria in liver (Pasteurella multocida [11]; 10 mg/kg MyxA, i.p., n=1): 8.5 x 10^7 CFU/g
Mean bacteria in liver (Pasteurella multocida [11]; 10 mg/kg MyxA, i.p., n=5): 0 CFU/g
bacteriological cure (animals) (Pasteurella multocida [11]; 10 mg/kg i.p.): five out of six
Mean bacteria in liver (Pasteurella multocida [11]; 50 mg/kg MyxA, s.c.): 1.8 x 10^6 CFU/g
Survival rate 48 hpi (Pasteurella multocida [11]; 50 mg/kg MyxA, s.c.): 0%
tolerability (clinical scoring) (Pasteurella multocida [11]; single 10 mg/kg i.p. dose, P. multocida sepsis model): well tolerated
MIC [12]: 32 µg/mL (≈ 19.1 µM)
MIC [13]: 32 µg/mL (≈ 19.1 µM)
MIC [14]: 8 µg/mL (≈ 4.77 µM)
tolerability (0.5 mg/kg/day i.p., seven consecutive doses): well tolerated
tolerability (5 mg/kg/day i.p., on day 2): severe adverse effects
half-life (in words) (mice, i.p. 0.5, 2 and 5 mg/kg, blood, LC-MS): long half-life
